# Source: ChEMBL document CHEMBL1944536, “Increased endothelial cell selectivity of triazole-bridged dihalogenated A-ring analogues of combretastatin A-1” (Bioorg Med Chem, 2012)
# pIC50: −log10 of the molar value.
# How the values were obtained:
# HUVEC [1] = test: Antivascular activity against HUVEC cells assessed as cell growth inhibition after 24 hrs by xCELLigence assay; format: functional, cell-based; conditions: Homo sapiens
# HUVEC [2] = test: Antivascular activity against HUVEC cells assessed as cell growth inhibition after 48 hrs by xCELLigence assay; format: functional, cell-based; conditions: Homo sapiens
# SK-OV-3 [3] = test: Cell cycle arrest in human SKOV3 cells assessed as accumulation at G2/M phase at 5 nM by flow cytometry (reference value: 14%); format: functional
# SK-OV-3 [4] = test: Cell cycle arrest in human SKOV3 cells assessed as accumulation at G1 phase at 5 nM by flow cytometry (reference value: 54%); format: functional
# SK-OV-3 [5] = test: Cytotoxicity against human SKOV3 cells after 48 hrs by MTS assay; format: functional, cell-based; conditions: SK-OV-3, 48 h
# SK-OV-3 [6] = test: Cell cycle arrest in human SKOV3 cells assessed as accumulation at S phase at 5 nM by flow cytometry (reference value: 31%); format: functional
# HUVEC [7] = test: Antivascular activity against HUVEC cells assessed as cell growth inhibition measured every 30 mins for 21 hrs by xCELLigence assay; format: functional, cell-based; conditions: Homo sapiens
# Bos taurus = species: Bos taurus; test: Inhibition of bovine tubulin polymerization at 5 uM measured every 30 secs for 60 mins by spectrophotometry relative to control
# HeLa = test: Cytotoxicity against human HeLa cells; format: functional, cell-based
smiles,measurement,setting,value
COc1ccc(/C=C\c2cc(OC)c(OC)c(OC)c2)c(O)c1O [COMBRETASTATIN A-1],pIC50,HUVEC [1],8.59
same,pIC50,HUVEC [2],8.39
COc1ccc(/C=C\c2cc(I)c(OC)c(I)c2)cc1O,Activity,SK-OV-3 [3],84%
COc1ccc(/C=C\c2cc(Br)c(OC)c(Br)c2)cc1O,Activity,SK-OV-3 [3],54%
COc1ccc(/C=C\c2cc(OC)c(OC)c(OC)c2)cc1O [COMBRETASTATIN A4],Activity,SK-OV-3 [3],31%
same,Activity,SK-OV-3 [4],40%
same,pIC50,SK-OV-3 [5],8.77
same,Activity,SK-OV-3 [6],23%
same,pIC50,HUVEC [7],8.66
same,inhibition,Bos taurus,57.6%
COc1cc(-c2nn[nH]c2-c2ccc(N)cc2)cc(OC)c1OC,pIC50,HeLa,5.30
